Tests used:
[1] = system: murine hematopoietic system; assay: exogenous spleen colony (CFU-S) assay, toxicity to the murine hematopoietic system; format: in vivo; conditions: CFU-S assay 20 hrs after drug administration, mice
Protocol: To evaluate toxicity to the murine hematopoietic system, an exogenous spleen colony (CFU-S) assay was used. A suitable number of murine […] are injected (intravenously) into lethally irradiated syngeneic mice (Ref. Hodgson, G. S., and Bradley, T. R., Properties of Haematopoietic Stem Cells Surviving 5-FU Treatment: Evidence for a pre-CFU-S Cell48, Nature 281:381, 1979).
Colonies are found in the spleen of the recipients on Day 9 or 10; there is a linear relationship between the number of cells injected and the number of spleen colonies. The spleen colonies originate from a single cell, and contain cells of the erythroid, granulocytic and megakaryocytic series.
At 20 hours after drug administration, each mouse was sacrificed and bone marrow was extracted from the femurs into McCoy's 5A medium (GIBCOm Grand Island, N.Y.) on ice. Nucleated marrow cells were quantitated, and 5×10^4 cells were injected intravenously into syngeneic recipient mice one hour after they received 800 rads whole body radiation. Nine days later, the recipient animals were sacrificed, and the spleens were removed and fixed in Boulin's solution. Surface colonies were then counted.

[2] = AZT recipients, cited from earlier work
[3] = system: human immunodeficiency virus (HIV); conditions: cited from earlier work
[4] = placebo 4 percent (P less than 0.001)

Row | SMILES | CFU-S Survival (% of Control) ([1]; AZT alone, 400 mg/kg ip) | neutropenia (less than 500 cells per cubic millimeter), share of recipients ([2]; placebo 2 percent (P less than 0.001)) | anemia with hemoglobin levels below 7.5 per deciliter, share of recipients [2, 4] | required multiple red-cell transfusions, share of recipients [2, 4] | clinical benefits with AIDS ([3]; AIDS patients) | serious adverse reactions ([3]; human, in vivo) | CFU-S Survival (% of Control) ([1]; phosphorothioate 900 mg/kg po, followed in 30 minutes with AZT 400 mg/kg ip)
1 | Cc1cn([C@H]2C[C@H](N=[N+]=[N-])[C@@H](CO)O2)c(=O)[nH]c1=O [AZT, 3'-azido-3'-deoxythymidinc] | 18% | 16% | 24% | 21% | clinical benefits with AIDS have been reported | serious adverse reactions, particularly bone marrow suppression were observed | 
2 | CNCCCNCCCSP(=O)(O)O [S-3-(3-methylaminopropylamino)propyl dihydrogen phosphorothioate] |  |  |  |  |  |  | 68%

From patent US5804571A (U.S. Bioscience, priority 1995, dated 1998)
